Data: patent US6344439B1, “Agents for promoting bone formation” (priority 1995, dated 2002)
Like-named read-outs stand apart in the source and are kept apart here.

Key:
[1] = system: osteoblasts of rat fetal calvaria; conditions: for No. of bone tuberculum: Tables 1-2 experiment (non-treated 146.5 ± 10.9); for No. of bone tuberculum / Calcified area: mean ± SD n=4
[2] = system: osteoblasts of rat fetal calvaria; assay type: cell-based; conditions: for Alkaline phosphatase activity: mean ± SD n=4; for Effect on alkaline phosphatase activity (in words): at 10^−8M
[3] = 10^−8M, Table 1 experiment (non-treated 0.044 ± 0.014)
[4] = 10^−8M, Table 3 experiment (non-treated 0.084 ± 0.008)
[5] = 10^−8M, Table 3 experiment (non-treated 4.46 ± 0.83)

How did the “No. of bone tuberculum” value ([1]; 10^−4M) turn out when “Gly-Arg-Gly-Asp-Ser (GRGDS) [reference compound]” was run?
The value was 168.3 ± 17.1 per well.

And the “No. of bone tuberculum” value ([1]; 10^−6M)?
Its value is 166.5 ± 10.6 per well.

And the “Effect on calcification (in words)” value ([1]; at 10^−4M)?
Its value is “completely prevent”.

And the “Effect on calcification (in words)” value ([1]; at 10^−6M)?
Its value is “promote”.

And the “Effect on the number of bone tuberculum (in words)” value (from here on “Effect on the number”) ([1]; at 10^−6M and 10^−4M ("these concentrations"))?
Its value is “tendency to be increased”.

Kistrin was tested. Which Alkaline phosphatase activity ([2]; 10^−5M, Table 3 experiment (non-treated 0.084 ± 0.008)) did it give?
Its Alkaline phosphatase activity is 0.085 ± 0.009 μM/min/well.

And the Alkaline phosphatase activity ([2]; 10^−6M, Table 1 experiment (non-treated 0.044 ± 0.014))?
The Alkaline phosphatase activity was 0.040 ± 0.003 μM/min/well.

What about the Alkaline phosphatase activity ([2]; 10^−6M, Table 3 experiment (non-treated 0.084 ± 0.008)) of the same compound?
The Alkaline phosphatase activity was 0.119 ± 0.008 μM/min/well.

What about the Alkaline phosphatase activity ([2]; 10^−7M, Table 1 experiment (non-treated 0.044 ± 0.014)) of the same compound?
The Alkaline phosphatase activity was 0.051 ± 0.007 μM/min/well.

And the Alkaline phosphatase activity ([2]; 10^−7M, Table 3 experiment (non-treated 0.084 ± 0.008))?
The Alkaline phosphatase activity was 0.133 ± 0.006 μM/min/well.

And the Alkaline phosphatase activity [2, 3]?
The Alkaline phosphatase activity was 0.067 ± 0.005 μM/min/well.

What about the Alkaline phosphatase activity [2, 4] of the same compound?
The Alkaline phosphatase activity was 0.126 ± 0.006 μM/min/well.

What about the Alkaline phosphatase activity ([2]; 10^−9M, Table 1 experiment (non-treated 0.044 ± 0.014)) of the same compound?
Its Alkaline phosphatase activity is 0.051 ± 0.008 μM/min/well.

What about the “Effect on alkaline phosphatase activity (in words)” value [2] of the same compound?
Its value is “promote”.

What about the “Effect on alkaline phosphatase activity (in words)” value ([2]; listed as kistrin) of the same compound?
The value was “Promoted”.

What about the Calcified area ([1]; 10^−5M, Table 3 experiment (non-treated 4.46 ± 0.83)) of the same compound?
Its Calcified area is 4.54 ± 0.88 mm^2/well.

What about the Calcified area ([1]; 10^−6M, Table 3 experiment (non-treated 4.46 ± 0.83)) of the same compound?
Its Calcified area is 7.93 ± 1.37 mm^2/well.

What about the “No. of bone tuberculum” value ([1]; 10^−6M) of the same compound?
Its value is 147.8 ± 14.2 per well.

What about the Calcified area ([1]; 10^−7M, Table 3 experiment (non-treated 4.46 ± 0.83)) of the same compound?
The Calcified area was 11.25 ± 1.04 mm^2/well.

And the “No. of bone tuberculum” value ([1]; 10^−7M)?
Its value is 189.5 ± 16.3 per well.

And the Calcified area [1, 5]?
Its Calcified area is 9.87 ± 1.04 mm^2/well.

What about the “No. of bone tuberculum” value ([1]; 10^−8M) of the same compound?
The value was 161.8 ± 19.2 per well.

And the “No. of bone tuberculum” value ([1]; 10^−9M)?
The value was 153.8 ± 12.3 per well.

And the “Effect on calcification (in words)” value ([1]; at 10^−6M)?
The value was “prevented completely”.

What about the “Effect on the number” value ([1]; at 10^−6M) of the same compound?
Its value is “not observed to affect”.

And the “Effect on calcification (in words)” value ([1]; at 10^−7 and 10^−8M)?
The value was “promote”.

What about the “Effect on the number” value ([1]; at 10^−7 and 10^−8M) of the same compound?
The value was “promote”.

For `C[C@@H]1C[C@H]2[C@@H]3CCC4=CC(=O)C=C[C@]4(C)[C@@]3(F)[C@@H](O)C[C@]2(C)[C@@]1(O)C(=O)CO` [Dexamethasone, reference compound], which Alkaline phosphatase activity [2, 3] is on record?
The Alkaline phosphatase activity was 0.181 ± 0.018 μM/min/well.

What about the Alkaline phosphatase activity [2, 4] of the same compound?
The Alkaline phosphatase activity was 0.143 ± 0.015 μM/min/well.

And the Calcified area [1, 5]?
The Calcified area was 13.82 ± 1.20 mm^2/well.

And the Calcified area ([1]; 10^−8M, Table 4 experiment (non-treated 2.56 ± 0.11))?
The Calcified area was 12.17 ± 1.05 mm^2/well.

And the “No. of bone tuberculum” value ([1]; 10^−8M)?
Its value is 307.3 ± 34.1 per well.
